Key:
in vivo = conditions: rat, iv
Method: (§1) Fifteen male Han Wistar rats were obtained from Charles River Laboratories, Margate, UK. Animals were all in the target weight range of 163 to 215 g at dosing. Diet was removed at the end of the working day prior to each dose occasion, and returned 4 h after dosing.
(§2) Each animal received a single administration (Table 2). PO doses were administered by gavage at a nominal dose volume of 5 ml/kg. IV doses were administered via a lateral tail vein, at a nominal dose volume of 2 ml/kg, as a bolus injection. Body weights were recorded the day after arrival and before dose administration and used for calculation of doses. Samples of blood (nominally 150 μl) were collected from the jugular vein of each animal. For PO dosing this was done at 0.25, 0.5, 1, 2, 4, 6, 8 and 24 h post dose. For IV dosing this was at 0.016, 0.083, 0.5, 1, 2, 4, 8 and 24 h post dose. The actual blood collection time was used in the subsequent PK data analysis. Blood was collected into tubes containing the K2EDTA anticoagulant and stored at room temperature. Blood was centrifuged (1500g, 10 min, 4 °C) to produce plasma for analysis and residual blood cells were discarded.
Transfer of a 10 μl aliquot into a clean 2 ml […] collection plate • 2. Addition of 25 μl I-B (500 ng/ml). Addition of 25 μl methanol to all blanks • 3. Vortex mix plate (ca. 1 min) • 4. Addition of 80 μl methanol to all wells • 5. Vortex mix plate (ca. 2 min) • 6. Centrifuge 2000g plate for 10 min at room temperature • 7. Transfer 40 μl of supernatant to a clean 1.2 ml 96-well collection plate • 8. Dilute with 160 μl 10 mM of ammonium acetate:ammonium hydroxide (100:0.5 v/v) solution • 9. Vortex mix plate (ca. 2 min) • 10. Complete analysis by LC/MS-MS.

Male Han Wistar rats = assay: Clinical signs / tolerability after single IV or PO administration
Method: as §1, §2
The following results were calculated for each group.

humans = test system: humans; set-up: method as in Knip et al., 2000; conditions: human adults, orally; ref Knip et al., 2000; cited from earlier work
rats = conditions: rat, in vivo, cited from earlier work

Question: Which results are given for `NC(=O)c1cccnc1` [NA, Nicotinamide, reference compound]?
Answer: time by which agent is completely cleared / plasma level returns to baseline (in vivo; male, Han Wistar): ≤ 24 h; AUC(0-inf) (in vivo; male, Han Wistar, 120 mg/kg): 774 µg·h/mL; AUC(0-t) (in vivo; male, Han Wistar, 120 mg/kg): 573 µg·h/mL; C0 (in vivo; male, Han Wistar, 120 mg/kg): 178 µg/mL; Cmax (in vivo; male, Han Wistar, 120 mg/kg): 168 µg/mL; Vd (in vivo; male, Han Wistar, 120 mg/kg): 0.911 L/kg; clearance (in vivo; male, Han Wistar, 120 mg/kg): 2.72 mL/min/kg; half-life (in vivo; male, Han Wistar, 120 mg/kg, t½): 4 h; clinical signs associated with administration (Male Han Wistar rats; IV or PO, doses up to 120 mg/kg, fifteen male rats): No clinical signs; adult dose at which NA is a safe therapy (humans): up to 10 g/day; safe dose in rats, IP injection (rats; ip): 1000 mg/kg; safe dose in rats, subcutaneous injection (rats; sc): 750 mg/kg

Question: Which results are given for `[2H]c1cc([2H])c(C(N)=O)cn1` [d2-NA, 4,6-d2-Nicotinamide]?
Answer: time by which agent is completely cleared / plasma level returns to baseline (in vivo): ≤ 24 h; C0 (in vivo; 20 mg/kg): 28,700 ng/ml; Cl (in vivo; 20 mg/kg): 9.77 mL/min/kg; Vz (in vivo; 20 mg/kg): 0.691 L/kg; AUC(0–t) (in vivo; 60 mg/kg): 196,000 h·ng/ml; AUC(0–∞) (in vivo; 60 mg/kg): 197,000 h·ng/ml; C0 (in vivo; 60 mg/kg): 82,700 ng/ml; Cl (in vivo; 60 mg/kg): 5.12 mL/min/kg; Cmax (in vivo; 60 mg/kg): 79,400 ng/ml; Vz (in vivo; 60 mg/kg): 0.963 L/kg; t½ (in vivo; 60 mg/kg): 2.23 h; C0 (in vivo; 120 mg/kg): 172,000 ng/ml; Cl (in vivo; 120 mg/kg): 4.37 mL/min/kg; Vz (in vivo; 120 mg/kg): 0.877 L/kg; tolerability (Male Han Wistar rats; regardless of route of administration (IV, PO), 20, 80 and 120 mg/kg, rat): well tolerated

From article PMC6556870 (European Journal of Pharmaceutical Sciences, 2019)
